Earlier results in patent publication EP0423943A2, “Use of collagenase inhibitors in the treatment of demyelinating diseases, in particular multiple sclerosis” (Beecham Group p.l.c., priority 1989, dated 1991).

Test system: metalloprotease acting at neutral pH identified as a component of myelin membranes
Conditions: myelin membrane metalloprotease, literature statement

SMILES	inhibition of the enzyme
c1cnc2c(c1)ccc1cccnc12 [1,10-phenanthroline]	inhibited
CC(C)C[C@H](NP(=O)(O)O[C@@H]1O[C@@H](C)[C@H](O)[C@@H](O)[C@H]1O)C(=O)N[C@@H](Cc1c[nH]c2ccccc12)C(=O)O [phosphoramidon]	not
